# Laboratory results reported in patent US11897851B2, “Heterocyclic GLP-1 agonists” (Gasherbrum Bio, Inc., priority 2021, dated 2024).
# Target: T1, GLP-1 Receptor (Homo sapiens, UniProt P43220)
# T1 construct: host or cells: HEK293/GLP1R/CRE-LUC (HEK293/CRE-Luc stably expressing the GLP-1 receptor)
# Test: GLP-1R agonist cAMP stimulation assay (HEK293/GLP1R/CRE-LUC cells, Cisbio cAMP dynamic 2 kit);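 note: compounds tested in half-log serial dilution, cAMP detected with cAMP-d2 and anti-cAMP cryptate antibody reagents after 1 h at room temperature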
# Format: cell-based
# Details: HEK293/CRE-Luc cell line stably expressing the GLP-1 Receptor; 1000 cells/well; 30 min at 37° C.; 0.5 mM IBMX, 0.1% BSA; read-out: GLP1R cAMP Stimulation DR: EC50
# T1 sequence (P43220 24-463, species assumed): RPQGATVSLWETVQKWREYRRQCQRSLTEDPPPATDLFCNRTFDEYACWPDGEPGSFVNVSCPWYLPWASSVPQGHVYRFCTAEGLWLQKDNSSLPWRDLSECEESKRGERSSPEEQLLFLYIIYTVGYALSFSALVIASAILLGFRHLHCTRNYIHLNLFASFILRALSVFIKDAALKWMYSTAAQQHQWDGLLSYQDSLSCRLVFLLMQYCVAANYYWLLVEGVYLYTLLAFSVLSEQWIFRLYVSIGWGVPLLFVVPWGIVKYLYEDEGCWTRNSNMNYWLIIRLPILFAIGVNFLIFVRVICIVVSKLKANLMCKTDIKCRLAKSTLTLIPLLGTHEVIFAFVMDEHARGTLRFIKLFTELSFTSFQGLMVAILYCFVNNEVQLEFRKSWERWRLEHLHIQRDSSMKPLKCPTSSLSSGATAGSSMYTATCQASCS
row,SMILES,EC50 [nM]
1,"CC#CCn1c(/C=C/C(=O)O)cnc1CN1CCC(c2cccc3c2OC(C)(c2ccc(Cl)cc2F)O3)CC1 (stereo not drawn) [Compound 193, (E)-3-(1-(but-2-yn-1-yl)-2-((4-(2-(4-chloro-2-fluorophenyl)-2-methylbenzo[d][1,3]dioxol-4-yl)piperidin-1-yl)methyl)-1H-imidazol-5-yl)acrylic acid]",0.11
2,"O=C(O)/C=C/c1cnc(CN2CCC(c3cccc4c3OC[C@@H](c3ccc(Cl)cc3)O4)CC2)n1Cc1cnco1 [Compound 205a, (R,E)-3-(2-((4-(2-(4-chlorophenyl)-2,3-dihydrobenzo[b][1,4]dioxin-5-yl)piperidin-1-yl)methyl)-1-(oxazol-5-ylmethyl)-1H-imidazol-5-yl)acrylic acid]",0.26
3,"O=C(O)/C=C/c1nnc(CN2CCC(c3cccc(OCc4ccc(Cl)cc4F)n3)CC2)n1CC1CCOCC1 [Compound 233, (E)-3-[5-[[4-[6-[(4-chloro-2-fluoro-phenyl)methoxy]-2-pyridyl]-1-piperidyl]methyl]-4-(tetrahydropyran-4-ylmethyl)-1,2,4-triazol-3-yl]prop-2-enoic acid]",26
4,"CC1(c2ccc(Cl)cc2F)Oc2cccc(C3CCN(Cc4ncc(/C=C/C(=O)O)n4CC4(C#N)CC4)CC3)c2O1 (stereo not drawn) [Compound 192, (E)-3-(2-((4-(2-(4-chloro-2-fluorophenyl)-2-methylbenzo[d][1,3]dioxol-4-yl)piperidin-1-yl)methyl)-1-((1-cyanocyclopropyl)methyl)-1H-imidazol-5-yl)acrylic acid]",0.073
5,"COCC/C(=C\c1cnc(CN2CCC(c3cccc(OCc4ccc(Cl)cc4F)n3)CC2)n1C[C@@H]1CCO1)C(=O)O [Compound 216a, (S,E)-2-((2-((4-(6-((4-chloro-2-fluorobenzyl)oxy)pyridin-2-yl)piperidin-1-yl)methyl)-1-(oxetan-2-ylmethyl)-1H-imidazol-5-yl)methylene)-4-methoxybutanoic acid]",4.4
6,"CC1(c2ccc(Cl)cc2F)Oc2cccc(C3CCN(Cc4ncc(/C=C/C(=O)O)n4C[C@@H]4CCOC4)CC3)c2O1 (stereo partly drawn) [Compound 156, (E)-3-(2-((4-(2-(4-chloro-2-fluorophenyl)-2-methylbenzo[d][1,3]dioxol-4-yl)piperidin-1-yl)methyl)-1-(((S)-tetrahydrofuran-3-yl)methyl)-1H-imidazol-5-yl)acrylic acid]",0.086
7,"Cn1c(C(=O)O)cnc1CN1CCC(c2cccc(OCc3ccc(Cl)cc3F)n2)CC1 [Compound 101, 2-((4-(6-((4-chloro-2-fluorobenzyl)oxy)pyridin-2-yl)piperidin-1-yl)methyl)-1-methyl-1H-imidazole-5-carboxylic acid]",227
8,"C[C@]1(c2ccc(Cl)cc2F)Oc2cccc(C3CCN(Cc4ncc(/C=C/C(=O)O)n4C[C@H]4CCOC4)CC3)c2O1 [Compound 155, (E)-3-(2-((4-((S)-2-(4-chloro-2-fluorophenyl)-2-methylbenzo[d][1,3]dioxol-4-yl)piperidin-1-yl)methyl)-1-(((R)-tetrahydrofuran-3-yl)methyl)-1H-imidazol-5-yl)acrylic acid]",0.0054
9,"COCCn1c(/C=C/C(=O)O)cnc1CN1CCC(c2cccc(OCc3ccc(Cl)cc3F)n2)CC1 [Compound 106, (E)-3-(2-((4-(6-((4-Chloro-2-fluorobenzyl)oxy)pyridin-2-yl)piperidin-1-yl)methyl)-1-(2-methoxyethyl)-1H-imidazol-5-yl)acrylic acid]",0.364
